From patent US7005274B1, “Methods and compositions for diagnosing and treating arthritic disorders and regulating bone mass” (MIGENIX Corp., priority 1999, dated 2006) come the findings set out here.

Data set [1] has as its system articular chondrocytes and TC28 cells. The data set is described as follows: Cell viability by trypan blue dye exclusion. The format is cell-based, human. To be noted: 0.025 mM antimycin A or 0.02 μM oligomycin, 72 hours. The procedure: Nonlethal but mitochondrial effective doses of antimycin A were determined as follows. Progressively higher concentrations of antimycin A (Sigma Chemical Co., St. Louis, Mo.) were added to cultured articular condrocytes and TC-28 cells. Cell proliferation was measured by incorporation of fluorogenic H33258 (Calbiochem, La Jolla, Calif.) essentially according to the manufacturer's instructions, and cell viability was assessed by trypan blue dye exclusion (Medzihradsky et al., Biochem. Med. 13:164–177, 1975), essentially according to the instructions of the manufacturer (Sigma).
The objective of these studies was to find, if possible, a level of antimycin A that depressed total cellular ATP levels without causing more than 10% loss of viability. In FIG. 1A, articular chondrocytes or TC28 cells (5×10^5) in 5 ml were studied in triplicate in the presence of antimycin (or oligomycin, see next Example) at the indicated concentrations, administered every 24 hours for a total of 72 hours, and total intracellular ATP concentrations were determined as described above. […]

Another data set has as its system Articular Chondrocytes. The data set is described as follows: Intracellular ATP, luciferase assay. The format is cell-based, human. The following applies: 10 ng/ml TGFβ, 0.025 mM antimycin A, 0.02 μg/ml oligomycin; mean ± SD. The procedure: Human articular cartilage chondrocytes were obtained by collagenase digestion of articular cartilage samples, and subsequent monolayer culture, essentially as described by Terkeltaub et al. (Arthritis Rheum. 41:2152–2164, 1998). The starting material for these primary cultures was human articular cartilage excised during surgical joint replacement, or obtained at autopsy from normal or osteoarthritic joints. The articular chondrocytes were grown in Dulbecco's modified Eagle's Medium with high glucose (DMEM high glucose, Life Technologies, Inc. Grand Island, N.Y.) with 10% fetal calf serum (FCS), 1% glutamine, 100 U/ml penicillin and 50 μg/ml streptomycin (all reagents from Sigma, St. Louis, Mo., unless otherwise noted). Typically, only first passage cells were used in the studies described herein.
Levels of total cellular ATP were measured by a modification of luciferase-based assays known in the art (Lin et al., Anal. Biochem. 24:531–540, 1968); related assays and modifications may alternatively be used (see, e.g., Turman et al., In Vitro Cell. Dev. Biol. Anim. 32:1–4, 1996, for an assay format that uses a fluorescent plate reader). In brief, 2×10^6 cells were washed and pelleted in 10 ml phosphate-buffered saline (PBS). The cell pellets were snap-frozen in a dry ice/ethanol bath, after which […] of 0.2 M HCl was added, followed by 0.3 ml of 2 mM glycine (pH 9.0). Samples were heated at 100° C. for five minutes, then placed on ice. A standard curve was developed using 0 to 500 pmol of purified ATP (disodium salt). One hundred (100) μl of the cell extract, or purified ATP standard, was added to an equal volume of the ATP assay mixture (containing MgSO4, DTT, EDTA, luciferase and luciferin, all from the Sigma Bioluminescence Assay Kit and all diluted 1:25). Following a 5 second incubation and 15 second integration, samples were read on a TD-20/20 Luminometer (Turner Designs, Sunnyvale, Calif.). […]

A further data set relates to NTPPPH. The data set is described as follows: Cell-associated NTPPPH activity (control study). The format is cell-based. The following applies: not shown.
For data set [2], the system named is TC28 cells or articular chondrocytes expressing NTPPPH PC-1. The data set is described as follows: PPi elaboration by PC-1 transfectants. The format is cell-based. To be noted: in the presence of antimycin A or oligomycin. The procedure: In related experiments, the effects on PPi elaboration by PC-1 transfectants of either oligomycin or antimycin A, alone or in combination with TGFβ, were determined (FIG. 4). Briefly, transient transfections were performed on 5×10^5 TC28 cells in a 35 mm tissue culture dish using Lipofectamine Plus™ (Life Technologies, Grand Island, N.Y.). Empty plasmid DNA (2 μg) or wild-type human PC-1-encoding DNA in plasmid pcDNA3.1 (2 μg) (Johnson et al., 1999 Arth. Rheum. 42:1986; Terkeltaub et al., 1994 Arthritis Rheum. 37:934–41) was added to the lipid reagent following a complex formation of the DNA to the “Plus” reagent according to the supplier's instructions, and then incubated with cells for 3 hours at 37° C. in DMEM/Fi2 medium containing 1% FCS. Cells were then washed with phosphate buffered saline (PBS), returned to complete culture medium and incubated an additional 72 hours. […] For adenoviral gene transfer, the protocol of Johnson et al. was followed (1999 Arth. Rheum. 42:1986) using articular chondrocytes which, unlike TC28 cells, cannot be efficiently transfected with plasmid DNA. […] In sum, mitochondrial function, particularly oxidative phosphorylation, appeared to provide ATP that was critical for extracellular matrix synthesis and PPi elaboration in chondrocytes.

Consider `CC[C@H]1/C=C/C=C/C[C@@H](C)[C@H](O)[C@@](C)(O)C(=O)[C@@H](C)[C@H](O)[C@@H](C)C(=O)[C@@H](C)[C@H](O)[C@@H](C)/C=C/C(=O)O[C@@H]2[C@H](C)[C@H](CC1)O[C@]1(CC[C@H](C)[C@H](C[C@@H](C)O)O1)[C@H]2C` [oligomycin], for which the loss of viability entry in data set [1] is “less than 10%”. In the data set with Articular Chondrocytes, the “ATP (pmoles/μg DNA): Articular Chondrocytes” value is listed as 221.2 ± 14.0 pmoles/μg DNA. In addition, the “cell-associated NTPPPH activity” value with NTPPPH was “neither oligomycin nor antimycin treatment suppressed cell-associated NTPPPH activity”. Moreover, the “intracellular and extracellular PPi levels in NTPPPH PC-1 transfectants” value in data set [2] was “unable to increase intracellular and extracellular PPi levels”.
With antimycin A, the loss of viability entry in data set [1] is “less than 10%”. Moreover, in the data set with Articular Chondrocytes, the “ATP (pmoles/μg DNA): Articular Chondrocytes” value was 93.73 ± 5.9 pmoles/μg DNA. Moreover, the “cell-associated NTPPPH activity” value with NTPPPH was “neither oligomycin nor antimycin treatment suppressed cell-associated NTPPPH activity”. Further, the “intracellular and extracellular PPi levels in NTPPPH PC-1 transfectants” value in data set [2] is “unable to increase intracellular and extracellular PPi levels”.
